The test system of one experiment is NCI-H929 xenografts. Description: NCI-H929 xenograft efficacy (tumor volume, survival). It is filed as in vivo. As to conditions: single dose […]. How it is done:
All animal studies were conducted in accordance with the guidelines approved by the Institutional Animal Care and Use Committees of AbbVie. The research protocol was approved by In Vivo Pharmacology at AbbVie prior to study initiation but was not publicly registered or disclosed. Female C.B-17 SCID-beige mice (AMO-1, OPM-2, NCI-H929, and OCI-AML2 xenografts) and female NSG mice (MV4-11-Red.Fluc systemic) were purchased from Charles River Laboratories (Wilmington, MA). Animals were housed in a light cycle-controlled room with HEPA filtration at 22 °C. Animals had nesting and climbing cage topper as the primary environmental enrichment. […] All xenograft trials were conducted using 5 to 10 mice per group, and all mice were ear tagged and monitored individually throughout the studies. […] Tumor burden in the systemic MV4-11-Red.Fluc experiment was measured using an IVIS® spectrum from PerkinElmer by taking the total photon flux of the entire dorsal side of an individual mouse. […]
For in vivo studies, maximal tumor growth inhibition (TGI) was calculated as the greatest treatment response using the following equation: Maximal TGI = (1 − mean tumor volume of the treated group/mean tumor volume of the vehicle control group) × 100. […] Data from experiments in vivo were analyzed using the student’s t-test for TGI values and the Mann–Whitney U test for TGD using Excel and GraphPad Prism. […]

The subject of experiment [1] is Murine p185+ B-ALL cells expressing human MCL-1. Description: Engineered murine B-cell ALL lines, cell viability (CellTiter-Glo). It is filed as cell-based. To be noted: Mus musculus, 24 hours, 10% fetal bovine serum. How it is done: Supplementary Table S3: Cellular potency and selectivity of ABBV-467 in
engineered murine B-c ell ALL c ell li nes
B-Cell ALL Lines (EC50, nM)
BCL-XL BCL-2 BCL-w BCL2A1 MCL-1
Murine p185+ B-ALL cells selectiv ely expressing individual human anti–BCL-2 family members (36)
were treated with ABBV-467 for 24 hours in RPMI-1640 media ( Life Technologies, CA) containing
10% fetal bovine serum, 55 μM 2 -mercaptoethanol, 2 mM glutamine, and 1%
penicil lin/ stre ptomycin an d th e i mpact on cell via bility de termi ned usi ng Ce llTiter- Glo. Each EC50 was
calculated from the resulting dose- response curves. Data are presented as the mean of three
independent experiments, except *(n=2). Where an EC50 could not be accurately determined,
activity was define d as >3,000 nM.
ALL, acute lymphoblastic leukemia; BCL- 2, B-cell lymphoma 2; EC 50, half maximal effective
In general terms: Cellular ATP, detected with luciferase, serves as a proxy for viable cell number.

`Cc1c(Cl)c2c(Cl)c(C)c1-c1c(-c3ccc(F)cc3)sc3ncnc(c13)O[C@@H](C(=O)O)Cc1cc(ccc1OCc1ccnc(-c3ccc(OC[C@H]4COCCO4)cc3)n1)OC[C@@H](CN1CCN(C)CC1)O2` [ABBV-467]: the “mice with tumors remaining below 1000 mm^3 until 250 days post-treatment” value with NCI-H929 xenografts is 40%. Also, in experiment [1], a half-maximal response (EC50) required 20.3 nM.

As a reminder, the EC50 is the concentration that produces a half-maximal response.

(Values after paper PMC10600239, “Selective MCL-1 inhibitor ABBV-467 is efficacious in tumor models but is associated with cardiac troponin increases in patients” (Communications Medicine, 2023).)
